A value given as a limit tells only on which side of the number the result lay.

The record followed here is patent US7612087B2, “Heterocyclic compounds as inhibitors of beta-lactamases” (Novexel, priority 2002, dated 2009).

In one assay the test system is Serratia 301HT6. Put plainly: MIC, micro-dilution in liquid medium, β-lactamine with product at 5 mg/l. Type of assay: cell-based. The conditions noted are these: compound at 5 mg/l; Trial 10, 301HT6 Serratia; 24 hours at 37° C. An outline of the steps: (§1)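 β-Lactamine was serially diluted in liquid medium with the test product held constant at 5 mg/l, then each dilution was inoculated with bacteria. After 24 hours at 37° C, the lowest concentration showing no bacterial growth was taken as the MIC, in mg/l.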
A general note: In broth dilution the organism is exposed to a series of concentrations in liquid medium.

The subject of assay [1] is P. aeruginosa 391HT7 (PSE). Described as above. In kind it is cell-based. The conditions noted are these: compound at 5 mg/l, 24 hours at 37° C.; for MIC of Piperacillin in combination with the compound: Trial 11, 391HT7 PSE. In a few lines: as §1
A further assay relates to E. coli 250HT21 (Tem1). Described as above. In kind it is cell-based. The following applies: compound at 5 mg/l, 24 hours at 37° C.; for MIC of Piperacillin in combination with the compound: Trial 2, 250HT21 Tem1. An outline of the steps: as §1
Assay [2] deals with P. aeruginosa 391HT8 (PSE). The description is as above. Type of assay: cell-based. The following applies: compound at 5 mg/l, 24 hours at 37° C.; for MIC of Piperacillin in combination with the compound: Trial 12, 391HT8 PSE. An outline of the steps:
as §1

Assay [3] has as its system E. coli 250HT23 (Class D). The assay is described as above. Type of assay: cell-based. The conditions noted are these: compound at 5 mg/l, 24 hours at 37° C.; for MIC of Piperacillin in combination with the compound: Trial 8, 250HT23 Class D. In a few lines:
as §1

In assay [4] the test system is S. aureus 011GO66 (PeniR). The assay is described as above. Type of assay: cell-based. The conditions noted are these: compound at 5 mg/l, 24 hours at 37° C.; for MIC of Piperacillin in combination with the compound: Trial 1, 011GO66 peniR. In a few lines: as §1
The subject of the next assay is E. coli 250HT22 (Tem2). Described as above. In kind it is cell-based. The following applies: compound at 5 mg/l, 24 hours at 37° C.; for MIC of Piperacillin in combination with the compound: Trial 3, 250HT22 Tem2. An outline of the steps:
as §1

Another assay relates to E. coli 250SJ1 (Tem7). The assay is described as above. In kind it is cell-based. The following applies: compound at 5 mg/l, 24 hours at 37° C.; for MIC of Piperacillin in combination with the compound: Trial 5, 250SJ1 Tem7. In a few lines:
as §1

For assay [5], the system named is E. cloacae 293HT6 (Class C). The assay is described as above. In kind it is cell-based. The conditions noted are these: compound at 5 mg/l, 24 hours at 37° C.; for MIC of Piperacillin in combination with the compound: Trial 9, 293HT6 Class. In a few lines: as §1
For the next assay, the system named is E. coli 250HT26 (SHV1). The assay is described as above. In kind it is cell-based. The conditions noted are these: compound at 5 mg/l, 24 hours at 37° C.; for MIC of Piperacillin in combination with the compound: Trial 6, 250HT26 SHV1. An outline of the steps:
as §1

A further assay has as its system E. coli 250BE1 (SHV4). The description is as above. The following applies: compound at 5 mg/l, 24 hours at 37° C.; for MIC of Piperacillin in combination with the compound: Trial 7, 250BE1 SHV4. In kind it is cell-based. In a few lines: as §1
For the next assay, the target named is T1, β-lactamase P99 (Enterobacter cloacae, UniProt P05364).
T1 construct: The β-lactamases are isolated from bacterial strains which are resistant to penicillins and cephalosporins; endogenous in cells; host or cells: Enterobacter cloacae 293HT6 (natural producer; French-press lysate, 100,000 g supernatant)
T1 sequence (P05364 21-381): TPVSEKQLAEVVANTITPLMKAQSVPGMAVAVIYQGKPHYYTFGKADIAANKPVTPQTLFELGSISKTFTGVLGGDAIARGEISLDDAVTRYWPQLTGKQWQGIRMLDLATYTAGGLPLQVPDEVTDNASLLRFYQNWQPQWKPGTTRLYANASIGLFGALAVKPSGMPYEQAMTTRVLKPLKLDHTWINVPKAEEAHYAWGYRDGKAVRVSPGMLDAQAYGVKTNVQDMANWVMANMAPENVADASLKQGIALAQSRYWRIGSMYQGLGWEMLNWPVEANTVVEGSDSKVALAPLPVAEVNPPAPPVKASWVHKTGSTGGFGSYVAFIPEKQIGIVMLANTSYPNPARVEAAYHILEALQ
Put plainly: biochemical. The conditions noted are these: 100 μM Nitrocefin, 50 mM sodium phosphate buffer pH7.0, 37° C.; read-out: IC50 nM/P99. An outline of the steps: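 P99 β-lactamase, taken from the soluble fraction of an Enterobacter cloacae 293HT6 lysate, was assayed at 37° C. in 50 mM sodium phosphate buffer pH7.0 with 100 μM Nitrocefin as the chromogenic substrate. Hydrolysis was followed kinetically at 485 nm at initial speed, with and without a 5 mn enzyme–inhibitor preincubation. Inhibitors were tested at 6 or 8 concentrations in duplicate, and IC50 was fitted with GraFit.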

The next assay concerns the target T2, β-lactamase TEM1 (Escherichia coli, UniProt P62593).
T2 construct: The β-lactamases are isolated from bacterial strains which are resistant to penicillins and cephalosporins; endogenous in cells; host or cells: E. coli 250HT21 (natural producer; French-press lysate, 100,000 g supernatant)
Put plainly: Inhibition of isolated β-lactamase Tem-1 (Nitrocefin hydrolysis). The following applies: 100 μM Nitrocefin, 50 mM sodium phosphate buffer pH7.0, 37° C. Type of assay: biochemical, E.coli 250HT21. In a few lines:
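TEM-1 from soluble extract of E. coli 250HT21, normalized enzyme, 100 μM Nitrocefin in 50 mM sodium phosphate pH 7.0 at 37 °C. Initial-rate hydrolysis read kinetically at 485 nm, with and without 5 min enzyme–inhibitor preincubation. CI50 from 6 or 8 concentrations in duplicate.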

Another assay concerns E. coli 250CF1 (Tem3). Put plainly: microbe, parasite or virus in culture. The following applies: compound at 5 mg/l, 24 hours at 37° C.; for MIC of Piperacillin in combination with the compound: Trial 4, 250CF1 Tem3. In kind it is cell-based. In a few lines:
as §1

T2 sequence (P62593 24-286 limits assumed): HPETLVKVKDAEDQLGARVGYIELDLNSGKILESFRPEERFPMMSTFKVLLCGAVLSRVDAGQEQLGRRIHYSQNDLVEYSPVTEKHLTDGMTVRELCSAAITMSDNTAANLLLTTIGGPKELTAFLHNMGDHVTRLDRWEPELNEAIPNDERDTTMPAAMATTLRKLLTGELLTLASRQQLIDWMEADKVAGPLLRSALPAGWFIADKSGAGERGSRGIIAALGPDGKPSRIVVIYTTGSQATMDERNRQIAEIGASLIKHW

Turning to `O=C(NCc1ccncc1)[C@H]1CC[C@@H]2CN1C(=O)N2OS(=O)(=O)[O-].[Na+]` (relative stereo) [Example 42, sodium salt of trans-7-oxo-N-[(4-pyridinyl)methyl]-6-(sulphooxy)-1,6-diazabicyclo[3.2.1]octane-2-carboxamide], the “MIC of Cefotaxime in combination with the compound” value in the assay with Serratia 301HT6 was “<=0.04 μg/ml”; in assay [1] (Trial 11, 391HT7 P. aeruginosa PSE), 20 µg/mL; with E. coli 250HT21 (Tem1) (Trial 2, 250HT21 E. coli Tem1), “<=0.04 μg/ml”; in assay [2] (Trial 12, 391HT8 P. aeruginosa PSE), 20 µg/mL; in assay [3] (Trial 8, 250HT23 E. coli Class D) it was “<=0.04 μg/ml”; in assay [4] (Trial 1, 011GO66 S. aureus PeniR) it was 2.5 µg/mL. Moreover, the “MIC of Cefotaxime in combination with the compound” value in the assay on E. coli 250HT22 (Tem2) (Trial 3, 250HT22 E. coli Tem2) is “<=0.04 μg/ml”; with E. coli 250SJ1 (Tem7) (Trial 5, 250SJ1 E. coli Tem7) it was “<=0.04 μg/ml”; in assay [5] (Trial 9, 293HT6 E. cloacae Class C) it was 0.3 µg/mL; in the assay with E. coli 250HT26 (SHV1) (Trial 6, 250HT26 E. coli SHV1), “<=0.04 μg/ml”; with E. coli 250BE1 (SHV4) (Trial 7, 250BE1 E. coli SHV4), “<=0.04 μg/ml”; in the assay with E. coli 250CF1 (Tem3) (Trial 4, 250CF1 E. coli Tem3), “<=0.04 μg/ml”. Also, the “MIC of Piperacillin in combination with the compound” value (from here on “MIC of Piperacillin in combination”) was 0.6 µg/mL with Serratia 301HT6; above 40 µg/mL in [1]; 1.2 µg/mL in the assay with E. coli 250HT21 (Tem1); above 40 µg/mL in assay [2]; 5 µg/mL in assay [3]; 1.2 µg/mL in [4]. The “MIC of Piperacillin in combination” value was 2.5 µg/mL in the assay with E. coli 250HT22 (Tem2); 2.5 µg/mL in the assay with E. coli 250SJ1 (Tem7); 1.2 µg/mL in [5]; 5 µg/mL with E. coli 250HT26 (SHV1); 5 µg/mL in the assay on E. coli 250BE1 (SHV4); 2.5 µg/mL in the assay on E. coli 250CF1 (Tem3). For the same compound, the figures for the IC50 on β-lactamase P99 and on β-lactamase TEM1 were 70 nM and 25 nM, respectively.
As for `NC(=O)Nc1cccc(NC(=O)[C@H]2CC[C@@H]3CN2C(=O)N3OS(=O)(=O)[O-])c1.[Na+]` (relative stereo) [Example 46, sodium salt of trans-N-[3-[(aminocarbonyl)amino]phenyl]-7-oxo-6-(sulphooxy)-1,6-diazabicyclo[3.2.1]octane-2-carboxamide], the “MIC of Piperacillin in combination” value was 1.2 µg/mL in the assay on Serratia 301HT6; above 40 µg/mL in assay [1]; 5 µg/mL in the assay on E. coli 250HT21 (Tem1); above 40 µg/mL in assay [2]; 10 µg/mL in assay [3]; 0.6 µg/mL in assay [4]. In addition, the “MIC of Piperacillin in combination” value with E. coli 250HT22 (Tem2) is above 40 µg/mL; with E. coli 250SJ1 (Tem7), above 40 µg/mL; in [5], above 40 µg/mL; in the assay with E. coli 250HT26 (SHV1) it was above 40 µg/mL; in the assay on E. coli 250BE1 (SHV4), 40 µg/mL; with E. coli 250CF1 (Tem3) it was 2.5 µg/mL. The IC50 is 70 nM on β-lactamase P99 and 26 nM against β-lactamase TEM1.
With `NC(=O)C(NC(=O)[C@H]1CC[C@@H]2CN1C(=O)N2OS(=O)(=O)[O-])c1ccccc1.[Na+]` (relative stereo) [Example 47, sodium salt of trans-N-(2-amino-2-oxo-1-phenylethyl)-7-oxo-6-(sulphooxy)-1,6-diazabicyclo[3.2.1]octane-2-carboxamide], the “MIC of Piperacillin in combination” value is 1.2 µg/mL in the assay on Serratia 301HT6; above 40 µg/mL in assay [1]; 2.5 µg/mL with E. coli 250HT21 (Tem1); above 40 µg/mL in [2]; 10 µg/mL in assay [3]; 0.6 µg/mL in assay [4]. Moreover, the “MIC of Piperacillin in combination” value in the assay with E. coli 250HT22 (Tem2) is 20 µg/mL; with E. coli 250SJ1 (Tem7) it was 40 µg/mL; in assay [5] it was above 40 µg/mL; in the assay with E. coli 250HT26 (SHV1) it was 2.5 µg/mL; with E. coli 250BE1 (SHV4), 5 µg/mL; with E. coli 250CF1 (Tem3) it was 5 µg/mL. The figures for the IC50 at β-lactamase P99 and against β-lactamase TEM1 were 43 nM and 18 nM, respectively.
With `O=C(OCCc1ccccn1)[C@H]1CC[C@@H]2CN1C(=O)N2OS(=O)(=O)[O-].[Na+]` (relative stereo) [Example 50, sodium salt of trans 2-(2-pyridinyl)ethyl 7-oxo-6-(sulphooxy)-1,6-diazabicyclo[3.2.1]octane-2-carboxylate], the “MIC of Piperacillin in combination” value was 0.6 µg/mL with Serratia 301HT6; above 40 µg/mL in [1]; 2.5 µg/mL with E. coli 250HT21 (Tem1); above 40 µg/mL in [2]; 40 µg/mL in assay [3]; 1.2 µg/mL in assay [4]. Also, the “MIC of Piperacillin in combination” value is 40 µg/mL in the assay on E. coli 250HT22 (Tem2); 40 µg/mL in the assay with E. coli 250SJ1 (Tem7); above 40 µg/mL in assay [5]; 40 µg/mL in the assay on E. coli 250HT26 (SHV1); 40 µg/mL in the assay on E. coli 250BE1 (SHV4); 5 µg/mL with E. coli 250CF1 (Tem3). Besides, the IC50 on β-lactamase P99 is 150 nM; at β-lactamase TEM1 it was 18 nM.
